Literature values, collected in patent US20140315870A1, “COMPOSITION COMPRISING A GLUCOCORTICOID AND A THIAZOLIDINEDIONE FOR INDUCING COMPELTE ADIPOGENIC DIFFERENTIATION OF MAMMALIAN STEM CELLS” (UNIVERSIDAD DEL DESARROLLO, priority 2011, published 2014).

Details: chronic consumption in humans

SMILES: CN(CCOc1ccc(CC2SC(=O)NC2=O)cc1)c1ccccn1 (stereo not shown) [rosiglitazone]
- increase in the chance for cardiovascular accidents: 50%
